Reference: patent US9862925B2, “Human stem cell-derived neural precursors for treatment of autoimmune diseases of the central nervous system” (Hadasit Medical Research Services & Development Limited, priority 2007, dated 2018)

Legend:
[1] = test system: hESC-derived multipotent uncommitted neural precursors; assay: Oligodendroglial differentiation of hESCs with retinoic acid and purmorphamine, propagation in low purmorphamine; assay type: cell-based, human
Procedure: To derive an expandable population of neural precursors enriched for oligodendroglial progenitors (committed), initial neuralization of hESCs was induced as above with or without noggin supplementation. After 2 weeks of culturing in NPM supplemented with mitogens +/−noggin the clusters were treated with RA (1-10 μM; preferably 1 μM) and the hedgehog agonist, Purmurphamine (Merck) (0.5-2 μM; preferably 0.5 μM) to induce ventral-caudal specification of the neuralized cells. Following 7-21 days, preferably 21 days of treatment, the cultures were further propagated for three to 20 more weeks as floating spheres in modified Sato medium supplemented with low concentrations of purmorphamine (0.2-0.5 μM; preferably 0.5 μM), bFGF (20 ng/ml), EGF (20 ng/ml), (NT3; 5 ng/ml) and ascorbic acid (200 nM). For final differentiation, the clusters were plated on poly-D-Lysine (10 μg/ml) and fibronectin (5 μg/ml) coated coverslips in modified Sato medium supplemented with NT3 ([…]), ascorbic acid (200 nM) T3 (40 ng/ml) IGF1 (10 ng/ml;) with or without Rock inhibitor (10 μM; Sigma) for 2-21 days.
To develop expandable cultures enriched for oligodendroglial committed progenitors, hESCs clusters were induced to differentiate as free floating clusters into multipotent uncommitted neural precursors as above with or without noggin. After two weeks of initial neural induction the multipotent uncommitted neural precursors were further cultured for 1-3 weeks, preferably 3 weeks, as floating spheres in modified Sato medium supplemented with mitogens, retinoic acid (RA) and the hedgehog (HH) agonist purmorphamine. During this culture period the early multipotent neural precursors gradually become enriched with Olig2+ oligodendroglial precursors (30-50% of total cells).
For further expansion of the oligodendroglial precursors, the floating spheres were propagated in Sato medium supplemented with mitogens, and low concentrations (0.5 μM) of purmorphamine. After 3-20 weeks of propagation as free floating clusters and plating on fibronectin for 24-48 hours, expression of the OPC markers Olig2 (FIG. 8A), PDGFRα (FIG. 8B) and NG2 (FIG. 8C) were detected in 30%, 20% and 20% of the differentiating cells, respectively. Following further 7-21 days of differentiation in the presence of NT3, AA, T3 and IGF1 +/− Rock inhibitor, markers of mature oligodendrocytes such as O4 (FIG. 8D), GalC (FIG. 8E) and MBP (FIG. 8F) were detected in 20%, 15% and 3% of the plated cells, respectively.

hESCs = assay: In vitro oligodendroglial differentiation of hESCs following retinoic acid treatment; assay type: cell-based, human; details: RA treatment
Procedure: Derivation of enriched population of committed oligodendrocyte progenitor cells (OPCs): Initial neural differentiation of hESC was induced as described above for the derivation of enriched population of uncommitted neural precursors. Following two weeks of culturing of hESC clusters in NPM supplemented with noggin (700 ng/ml), and the oligodendroglial mitogens bFGF (20 ng/ml) and EGF (20 ng/ml), the cultures were treated with retinoic acid (RA) (sigma) (10 μM) to induce caudal specification of the neuralized cells. Following 7 days of RA treatment, cultures were propagated as floating spheres in the oligodendroglial specific, modified Sato medium supplemented with the oligodendroglial mitogens bFGF (20 ng/ml), EGF (20 ng/ml) and PDGF-AA (50 ng/ml), and the oligodendroglial survival and maturation factors neurotrophine 3 (NT3) (5 ng/ml) and triiodothyronine (T3) (40 ng/ml).
In vitro oligodendroglial differentiation of hESCs was examined. The experimental protocol included initial induction of human ESCs to differentiate as free floating clusters, under defined culture conditions, in the presence of noggin into early multipotent neural precursors according to the published protocols as described above. After two weeks, they were treated with retinoic acid (RA) and propagated as floating spheres in modified Sato medium and mitogens At sequential week intervals, differentiation was induced by plating on fibronectin and withdrawal of the mitogens, and the expression of oligodendroglial markers were analyzed by immunostaining. After three weeks of propagation as free floating clusters, followed by plating and differentiation for 48 hours, the differentiating cells expressed the oligodendroglial markers NG2 (12%) (FIGS. 7A,[…], 7D, 7F) GD3 (20%) (FIGS. 7B, 7C) and PDGFRα (15%) (FIGS. 7E, 7F). Although at this stage of three weeks propagation, when enrichment for OPCs was obtained, markers of mature oligodendrocytes such as O4 and GalC were not detected, even after 7-10 days of differentiation. Only in cultures that were propagated for more than 5 weeks and induced to differentiate for 7 days, O4 and GalC were expressed by 3% and 1% of differentiating cells, respectively (FIGS. 7G, 7I (O4) and FIGS. 7H, 7I (GalC). Nuclei in FIGS. 7C, 7F, 7G-7I were counter stained with DAPI.

[2] = after RA + purmorphamine, 3-20 weeks propagation with 0.5 μM purmorphamine, plated on fibronectin 24-48 hours
[3] = propagation with 0.5 μM purmorphamine, further 7-21 days differentiation with NT3, AA, T3, IGF1 +/- Rock inhibitor
[4] = propagated more than 5 weeks, differentiated 7 days
[5] = three weeks propagation as floating clusters, differentiation 48 hours

SMILES	Olig2+ oligodendroglial precursors (of total cells) ([1]; 1-3 weeks as floating spheres in modified Sato medium with mitogens, RA and purmorphamine)	differentiating cells expressing NG2 [1, 2]	differentiating cells expressing Olig2 [1, 2]	differentiating cells expressing PDGFRα [1, 2]	plated cells expressing GalC [1, 3]	plated cells expressing MBP [1, 3]	plated cells expressing O4 [1, 3]	differentiating cells expressing GalC (hESCs; [4])	differentiating cells expressing O4 (hESCs; [4])	differentiating cells expressing GD3 (hESCs; [5])	differentiating cells expressing NG2 (hESCs; [5])	differentiating cells expressing PDGFRα (hESCs; [5])
c1ccc2c(Oc3nc(Nc4ccc(N5CCOCC5)cc4)c4ncn(C5CCCCC5)c4n3)cccc2c1 [purmorphamine]	30-50%	20%	30%	20%	15%	3%	20%	–	–	–	–	–
CC1=C(/C=C/C(C)=C/C=C/C(C)=C/C(=O)O)C(C)(C)CCC1 [retinoic acid]	–	–	–	–	–	–	–	1%	3%	20%	12%	15%
